Results on 5 compounds are retold here after patent USRE30451E, “Novel process for producing antibiotics bleomycin” (priority 1969, dated 1980).

Data set [1] has as its system Ehrlich ascites carcinoma cells. Conditions: for ED50: maximum dose level at which mice survive 100 to 200 percent of control survival days, intraperitoneally once a day for 10 days, doses 25 mg/kg to 0.19 mg/kg; for anti-tumor effect (in words): mouse, in vivo.
For data set [2] the test system is unchanged. Briefly: Life-prolongation effect and toxicity in mice inoculated with ascites type Ehrlich carcinoma. Conditions: mouse, in vivo.
The conditions of data set [3]: tumour-inoculated ICR/JCL mice, intraperitoneally once a day for 10 days, doses 25 mg/kg to 0.19 mg/kg, Behres-Karber's method, observed up to 50 days.

On to `Cc1c(N)nc(C(CC(N)=O)NCC(N)C(N)=O)nc1C(=O)NC(C(=O)NC(C)C(O)C(C)C(=O)NC(C(=O)NCCc1nc(-c2nc(C(=O)NCCCNC(C)c3ccccc3)cs2)cs1)C(C)O)C(OC1OC(CO)C(O)C(O)C1OC1OC(CO)C(O)C(OC(N)=O)C1O)c1cnc[nH]1` (stereo not shown) [Compound 35, 3-(1-phenylethyl)-aminopropyl-amino-bleomycin], for which, in data set [1], the ED50 is listed as 0.19 and the “anti-tumor effect (in words)” value was “excellent in effect”. In addition, the “toxicity (in words)” value in data set [2] is reported as “less toxicity”.

Turning to `COCCCNCCCNC(=O)c1csc(-c2csc(CCNC(=O)C(NC(=O)C(C)C(O)C(C)NC(=O)C(NC(=O)c3nc(C(CC(N)=O)NCC(N)C(N)=O)nc(N)c3C)C(OC3OC(CO)C(O)C(O)C3OC3OC(CO)C(O)C(OC(N)=O)C3O)c3cnc[nH]3)C(C)O)n2)n1` (stereo not shown) [Compound 33, 3-(3-methoxypropyl)-aminopropylaminobleomycin], the LD50 in data set [3] is reported as 7.5. In addition, the ED50 in data set [1] stood at 0.19.

Consider `Cc1c(N)nc([C@H](CC(N)=O)NC[C@H](N)C(N)=O)nc1C(=O)N[C@H](C(=O)N[C@H](C)[C@@H](O)[C@H](C)C(=O)N[C@H](C(=O)NCCc1nc(-c2nc(C(=O)NCCCCN=C(N)N)cs2)cs1)[C@@H](C)O)[C@@H](O[C@@H]1O[C@@H](CO)[C@@H](O)[C@H](O)[C@@H]1O[C@H]1O[C@H](CO)[C@@H](O)[C@H](OC(N)=O)[C@@H]1O)c1cnc[nH]1` [Compound 3, Bleomycin B2, reference compound], for which the LD50 in data set [3] turned out to be 7.5. Moreover, the ED50 in data set [1] was 0.78.

With `Cc1c(N)nc([C@H](CC(N)=O)NC[C@H](N)C(N)=O)nc1C(=O)N[C@H](C(=O)N[C@H](C)[C@@H](O)[C@H](C)C(=O)N[C@H](C(=O)NCCc1nc(-c2nc(C(=O)NCCCNCCCCN)cs2)cs1)[C@@H](C)O)[C@@H](O[C@@H]1O[C@@H](CO)[C@@H](O)[C@H](O)[C@@H]1O[C@@H]1O[C@H](CO)[C@@H](O)[C@H](OC(N)=O)[C@@H]1O)c1cnc[nH]1` [Compound 7, Bleomycin A5, reference compound], the LD50 in data set [3] is reported as 15.6. In data set [1], the ED50 came out at 0.19 and the “anti-tumor effect (in words)” value is recorded as “strong in anti-tumor property”. Besides, in data set [2], the “toxicity (in words)” value is on record as “less in toxicity”.

Regarding `Cc1c(N)nc(C(CC(N)=O)NCC(N)C(N)=O)nc1C(=O)NC(C(=O)NC(C)C(O)C(C)C(=O)NC(C(=O)NCCc1nc(-c2nc(C(=O)NCCCNCCCN(C)C)cs2)cs1)C(C)O)C(OC1OC(CO)C(O)C(O)C1OC1OC(CO)C(O)C(OC(N)=O)C1O)c1cnc[nH]1` (stereo not shown) [Compound 21], the LD50 in data set [3] is reported as 10.3. This compound also showed an ED50 in data set [1] of 0.19.
